This note sets out measurements from patent EP3421460A1, “2-[(4-ALKYLPHENOXY)-PYRIDINYL]-1-(1,2,4-TRIAZOL-1-YL)ALKAN-2-OL FUNGICIDES” (Bayer Aktiengesellschaft, priority 2018, dated 2019).

SMILES strings stand for the structures.

Data set [1] concerns Phakopsora pachyrhizi. The experiment in a line: in vivo curative test on Phakopsora (soybeans). Conditions: sprayed 3 days after inoculation, evaluated 7 days after inoculation. The protocol: Example A: in vivo curative test on Phakopsora (soybeans); comparison of compound I-01 according to the invention vs. related compounds known from WO-A 2017/029179 and WO-A 2013/007767, respectively [table] To produce a suitable preparation of active compound, 1 part by weight of active compound is mixed with the stated amounts of solvent and emulsifier, and the concentrate is diluted with water to the desired concentration. To test for curative activity, young plants are inoculated with an aqueous spore suspension of the causal agent of soybean rust (Phakopsora pachyrhizi) and stay for 24h without light in an incubation cabinet at approximately 24°C and a relative atmospheric humidity of 95 %. The plants remain in the incubation cabinet at approximately 24°C and a relative atmospheric humidity of approximately 80 % and a day / night interval of 12h. 3 days after the inoculation, the plants are sprayed with the preparation of active compound at the stated rate of application. The test is evaluated 7 days after the inoculation. 0% means an efficacy which corresponds to that of the untreated control, while an efficacy of 100% means that no disease is observed. Table: in vivo curative test on Phakopsora test (soybeans)

Data set [2] has as its system Podosphaera leucotricha. Description: in vivo curative test on Podosphaera (apples). The settings on record: sprayed 2 days after inoculation, evaluated 10 days after inoculation. How it is done:
Example B: in vivo curative test on Podosphaera (apples); comparison of compound I-01 according to the invention vs. related compounds known from WO-A 2017/029179 and WO-A 2013/007767, respectively [table] To produce a suitable preparation of active compound, 1 part by weight of active compound is mixed with the stated amounts of solvent and emulsifier, and the concentrate is diluted with water to the desired concentration. To test for curative activity, young plants are inoculated with an aqueous spore suspension of the causal agent of apple mildew (Podosphaera leucotricha). The plants are placed in a greenhouse at approximately 23°C under relative atmospheric humidity of approximately 70%. 2 days after the inoculation, the plants are sprayed with the preparation of active compound at the stated rate of application. The test is evaluated 10 days after the inoculation. 0% means an efficacy which corresponds to that of the untreated control, while an efficacy of 100% means that no disease is observed. Table: in vivo curative test on Podosphaera test (apples)

The nature of data set [3]: LogP measurement by HPLC on reversed phase columns (EEC directive 79/831 Annex V.A8). Format: physicochemical. The settings on record: reversed phase HPLC column; method [a]: LC-UV, acidic range, 0.1% formic acid in water and acetonitrile as eluent. The protocol:
LogP values: Measurement of LogP values was performed according to EEC directive 79/831 Annex V.A8 by HPLC (High Performance Liquid Chromatography) on reversed phase columns with the following methods: • [a] […] If more than one LogP value is available within the same method, all the values are given and separated by "+". Calibration was done with straight-chain alkan2-ones (with 3 to 16 carbon atoms) with known LogP values (measurement of LogP values using retention times with linear interpolation between successive alkanones). Lambda-max-values were determined using UV-spectra from 200 nm to 400 nm and the peak values of the chromatographic signals.

With `CC(O)(Cn1cncn1)c1ccc(Oc2ccc(Cl)cc2)cc1C(F)(F)F` (stereo not shown) [drawing 10], the Efficacy in% was 8% in data set [1] (rate of application 5 ppm) and 15% in data set [1] (rate of application 10 ppm).
Take `CC(O)(Cn1cncn1)c1ccc(Oc2ccc(Cl)cc2)cc1C(F)(F)F` (stereo not shown) [drawing 13]: the Efficacy in% in data set [2] (rate of application 1 ppm) was determined as 71%; in data set [2] (rate of application 10 ppm), 95%.
As to `CC(O)(Cn1cncn1)c1ccc(Oc2ccc(S(F)(F)(F)(F)F)cc2)nc1C(F)(F)F` (stereo not shown) [drawing 12], the Efficacy in% was determined as 62% in data set [2] (rate of application 1 ppm) and 92% in data set [2] (rate of application 10 ppm).
Turning to `CC(O)(Cn1cncn1)c1ccc(Oc2ccc(S(F)(F)(F)(F)F)cc2)nc1C(F)(F)F` (stereo not shown) [drawing 9], the Efficacy in% in data set [1] (rate of application 5 ppm) and in data set [1] (rate of application 10 ppm) was 0% each time.
As to `Cc1ccc(Oc2ccc(C(C)(O)Cn3cncn3)c(C(F)(F)F)n2)cc1` (stereo not shown) [I-01, 2-[6-(4-methylphenoxy)-2-(trifluoromethyl)pyridin-3-yl]-1-(1,2,4-triazol-1-yl)propan-2-ol], the chromatographic logP (usually a lipophilicity value derived from retention on a column) in data set [3] came to 2.69. Besides, the Efficacy in% came out at 86% in data set [1] (rate of application 5 ppm), 83% in data set [1] (rate of application 10 ppm), 86% in data set [2] (rate of application 1 ppm) and 99% in data set [2] (rate of application 10 ppm).
